Data reported in PubChem BioAssay (NCI).
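48-hour exposure; five concentrations; linearly interpolated endpoints. GI50 marks 50% less growth. TGI marks complete inhibition of growth.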

How the values were obtained:
Assay in all cases: NCI tumour cell line growth inhibition, 48 h
[1] = system: NCI-H522 lung
[2] = system: HCC-2998 colon
[3] = system: 786-0 renal
[4] = system: DU-145 prostate
[5] = system: SK-MEL-28 melanoma
[6] = system: HL-60(TB) leukemia
[7] = system: K-562 leukemia
[8] = system: SR leukemia
[9] = system: SK-MEL-2 melanoma
[10] = system: SF-268 CNS
[11] = system: MDA-MB-231 breast
[12] = system: MDA-MB-435
[13] = system: RPMI-8226 leukemia
[14] = system: M14 melanoma
[15] = system: SF-539 CNS
[16] = system: HS 578T breast
[17] = system: MOLT-4 leukemia
[18] = system: MCF7 breast
[19] = system: SNB-75 CNS
[20] = system: A549 NSCLC
[21] = system: HOP-92 NSCLC
[22] = system: BT-549 breast
[23] = system: NCI-H226 lung
[24] = system: CAKI-1 renal
[25] = system: PC-3 prostate
[26] = system: HT29 colon
[27] = system: HCT-15 colon
[28] = system: SK-OV-3 ovarian
[29] = system: HCT-116 colon
[30] = system: UACC-257 melanoma
[31] = system: OVCAR-4 ovarian
[32] = system: LOX IMVI melanoma
[33] = system: OVCAR-3 ovarian
[34] = system: U251 CNS
[35] = system: SF-295 CNS
[36] = system: KM12 colon
[37] = system: OVCAR-8 ovarian
[38] = system: SN12C renal
[39] = system: SNB-19 CNS
[40] = system: HOP-62 NSCLC
[41] = system: CCRF-CEM leukemia
[42] = system: T-47D breast
[43] = system: SW-620 colon
[44] = system: TK-10 renal
[45] = system: NCI-H23 lung
[46] = system: SK-MEL-5 melanoma
[47] = system: EKVX NSCLC
[48] = system: A498 renal
[49] = system: UO-31 renal
[50] = system: NCI-H460 lung
[51] = system: OVCAR-5 ovarian
[52] = system: NCI/ADR-RES ovarian
[53] = system: UACC-62 melanoma
[54] = system: IGROV1 ovarian
[55] = system: COLO 205 colon
[56] = system: MALME-3M melanoma
[57] = system: ACHN renal

Which GI50 [1] does the source give for `CC(C)(O)c1cncc(-c2ccc3ncc(C#N)c(N4CCc5cc(F)c(Cl)cc54)c3c2)c1` here?
Its GI50 is 3.95 µM.

And the TGI [1]?
Its TGI is over 100 µM.

What about the GI50 [2] of the same molecule?
Its GI50 is 3.75 µM.

And the TGI [2]?
The TGI was 63.8 µM.

And the GI50 [3]?
The GI50 was 3.86 µM.

And the TGI [3]?
Its TGI is over 100 µM.

And the GI50 [4]?
The GI50 was 3.71 µM.

What about the TGI [4] of the same molecule?
Its TGI is over 100 µM.

What about the GI50 [5] of the same molecule?
The GI50 was 3.39 µM.

And the TGI [5]?
The TGI was 41 µM.

And the GI50 [6]?
Its GI50 is 6.06 µM.

And the TGI [6]?
The TGI was 28.2 µM.

And the GI50 [7]?
The GI50 was 7.09 µM.

And the TGI [7]?
The TGI was over 100 µM.

And the GI50 [8]?
The GI50 was 3.52 µM.

And the TGI [8]?
The TGI was over 100 µM.

What about the GI50 [9] of the same molecule?
Its GI50 is 4.26 µM.

And the TGI [9]?
The TGI was 21.6 µM.

What about the GI50 [10] of the same molecule?
Its GI50 is 3.84 µM.

And the TGI [10]?
The TGI was over 100 µM.

And the GI50 [11]?
The GI50 was 2.6 µM.

What about the TGI [11] of the same molecule?
Its TGI is 30.4 µM.

What about the GI50 [12] of the same molecule?
The GI50 was 3.36 µM.

And the TGI [12]?
Its TGI is 32.4 µM.

And the GI50 [13]?
The GI50 was 2.92 µM.

And the TGI [13]?
Its TGI is 87.4 µM.

And the GI50 [14]?
Its GI50 is 3.79 µM.

And the TGI [14]?
Its TGI is over 100 µM.

What about the GI50 [15] of the same molecule?
The GI50 was 2.88 µM.

What about the TGI [15] of the same molecule?
The TGI was 15.8 µM.

What about the GI50 [16] of the same molecule?
The GI50 was 1.23 µM.

And the TGI [16]?
The TGI was 4.7 µM.

And the GI50 [17]?
The GI50 was 3.11 µM.

What about the TGI [17] of the same molecule?
Its TGI is over 100 µM.

And the GI50 [18]?
Its GI50 is 6 µM.

And the TGI [18]?
Its TGI is 53.4 µM.

And the GI50 [19]?
Its GI50 is 1.22 µM.

What about the TGI [19] of the same molecule?
The TGI was 5.67 µM.

And the GI50 [20]?
The GI50 was 3.64 µM.

And the TGI [20]?
Its TGI is over 100 µM.

What about the GI50 [21] of the same molecule?
Its GI50 is 1.79 µM.

And the TGI [21]?
Its TGI is 7.79 µM.

And the GI50 [22]?
Its GI50 is 2.7 µM.

What about the TGI [22] of the same molecule?
Its TGI is 22.7 µM.

And the GI50 [23]?
The GI50 was 1.77 µM.

What about the TGI [23] of the same molecule?
The TGI was 15.4 µM.

What about the GI50 [24] of the same molecule?
Its GI50 is 2.37 µM.

And the TGI [24]?
Its TGI is over 100 µM.

And the GI50 [25]?
Its GI50 is 2.86 µM.

What about the TGI [25] of the same molecule?
The TGI was over 100 µM.

What about the GI50 [26] of the same molecule?
The GI50 was 3.31 µM.

What about the TGI [26] of the same molecule?
Its TGI is over 100 µM.

What about the GI50 [27] of the same molecule?
Its GI50 is 4.28 µM.

What about the TGI [27] of the same molecule?
Its TGI is over 100 µM.

And the GI50 [28]?
Its GI50 is 1.83 µM.

What about the TGI [28] of the same molecule?
Its TGI is 8.64 µM.

And the GI50 [29]?
Its GI50 is 5.84 µM.

What about the TGI [29] of the same molecule?
The TGI was over 100 µM.

What about the GI50 [30] of the same molecule?
Its GI50 is 4.22 µM.

And the TGI [30]?
Its TGI is 63.3 µM.

And the GI50 [31]?
Its GI50 is 2.84 µM.

What about the TGI [31] of the same molecule?
The TGI was 18.5 µM.

And the GI50 [32]?
The GI50 was 1.81 µM.

What about the TGI [32] of the same molecule?
The TGI was 17.3 µM.

And the GI50 [33]?
The GI50 was 2.91 µM.

What about the TGI [33] of the same molecule?
The TGI was 40.3 µM.

What about the GI50 [34] of the same molecule?
Its GI50 is 4.71 µM.

What about the TGI [34] of the same molecule?
The TGI was over 100 µM.

What about the GI50 [35] of the same molecule?
The GI50 was 2.38 µM.

What about the TGI [35] of the same molecule?
The TGI was 14.1 µM.

And the GI50 [36]?
Its GI50 is 6.81 µM.

And the TGI [36]?
Its TGI is over 100 µM.

And the GI50 [37]?
Its GI50 is 3.19 µM.

What about the TGI [37] of the same molecule?
Its TGI is over 100 µM.

What about the GI50 [38] of the same molecule?
The GI50 was 2.03 µM.

And the TGI [38]?
Its TGI is over 100 µM.

And the GI50 [39]?
The GI50 was 4.08 µM.

What about the TGI [39] of the same molecule?
Its TGI is over 100 µM.

And the GI50 [40]?
The GI50 was 2.7 µM.

And the TGI [40]?
Its TGI is 57.3 µM.

What about the GI50 [41] of the same molecule?
Its GI50 is 4.25 µM.

What about the TGI [41] of the same molecule?
Its TGI is over 100 µM.

And the GI50 [42]?
The GI50 was 4.06 µM.

What about the TGI [42] of the same molecule?
The TGI was 76.5 µM.

What about the GI50 [43] of the same molecule?
Its GI50 is 4.51 µM.

What about the TGI [43] of the same molecule?
Its TGI is over 100 µM.

And the GI50 [44]?
Its GI50 is 8.33 µM.

What about the TGI [44] of the same molecule?
The TGI was 40 µM.

And the GI50 [45]?
The GI50 was 3.6 µM.

And the TGI [45]?
The TGI was 64.3 µM.

And the GI50 [46]?
The GI50 was 3.95 µM.

And the TGI [46]?
Its TGI is 13.8 µM.

What about the GI50 [47] of the same molecule?
Its GI50 is 2.55 µM.

And the TGI [47]?
Its TGI is 11.3 µM.

And the GI50 [48]?
The GI50 was 2.07 µM.

And the TGI [48]?
Its TGI is 6.17 µM.

What about the GI50 [49] of the same molecule?
Its GI50 is 0.554 µM.

And the TGI [49]?
The TGI was 8.69 µM.

And the GI50 [50]?
Its GI50 is 3.24 µM.

What about the TGI [50] of the same molecule?
Its TGI is over 100 µM.

What about the GI50 [51] of the same molecule?
Its GI50 is 3.3 µM.

And the TGI [51]?
The TGI was 82.7 µM.

What about the GI50 [52] of the same molecule?
The GI50 was 4.4 µM.

And the TGI [52]?
Its TGI is 98.2 µM.

And the GI50 [53]?
The GI50 was 1.84 µM.

And the TGI [53]?
Its TGI is 10.2 µM.

What about the GI50 [54] of the same molecule?
The GI50 was 1.57 µM.

What about the TGI [54] of the same molecule?
The TGI was 6.55 µM.

And the GI50 [55]?
The GI50 was 4.48 µM.

And the TGI [55]?
The TGI was 26.7 µM.

What about the GI50 [56] of the same molecule?
The GI50 was 1.99 µM.

What about the TGI [56] of the same molecule?
Its TGI is 7.06 µM.

And the GI50 [57]?
The GI50 was 2.89 µM.

What about the TGI [57] of the same molecule?
Its TGI is over 100 µM.
